In ChEMBL document CHEMBL4665705 (J Med Chem, 2020):
Values after ≈ are worked out from the molar mass of the structure shown.

Assays:
[1] = Oral bioavailability in Beagle dog; format: ADME, organism-based, Canis lupus familiaris; conditions: in vivo
[2] = molecular target: Cytochrome P450 3A4 (Homo sapiens, UniProt P08684); experiment: Metabolism-dependent inhibition of CYP3A4 (unknown origin); format: ADME
[3] = Clearance in Beagle dog at 0.5 mg/kg, iv administered as 1 hr infusion on day 1 and day 7 to achieve a target dose of 1 mg/kg by LC-MS/MS analysis relative to liver blood flow; format: ADME, organism-based, Canis lupus familiaris; conditions: in vivo, 168 h, dose 0.5-1 mg/kg, time 7 day
[4] = Clearance in Wistar Han rat at 1 mg/kg, iv administered as 1 hr infusion or 3 mg/kg, po administered via gavage by LC-MS/MS analysis relative to liver blood flow; format: ADME, organism-based; conditions: in vivo
[5] = test system: Blood; experiment: Inhibition of LPS-induced MCP1 production in human whole blood preincubated for 30 mins followed by LPS addition measured after 24 hrs by immunoassay; format: functional, tissue-based
[6] = molecular target: Bromodomain testis-specific protein (Homo sapiens, UniProt Q58F21, Y66A); experiment: Displacement of Alexa Fluor 647 labelled ligand from 6His-Thr tagged BRDT BD2/BD1 Y66A mutant (1 to 397 residues) (unknown origin) measured after 30 mins by TR-FRET assay
[7] = molecular target: Bromodomain-containing protein 3 (Homo sapiens, UniProt Q15059, Y348A); experiment: Displacement of Alexa Fluor 647 labelled ligand from 6His-Thr tagged BRD3 BD1/BD2 Y348A mutant (1 to 435 residues) (unknown origin) measured after 30 mins by TR-FRET assay
Sequence of Bromodomain-containing protein 3 (Homo sapiens, UniProt Q15059, Y348A) (Q15059 2-726 Y348A limits assumed): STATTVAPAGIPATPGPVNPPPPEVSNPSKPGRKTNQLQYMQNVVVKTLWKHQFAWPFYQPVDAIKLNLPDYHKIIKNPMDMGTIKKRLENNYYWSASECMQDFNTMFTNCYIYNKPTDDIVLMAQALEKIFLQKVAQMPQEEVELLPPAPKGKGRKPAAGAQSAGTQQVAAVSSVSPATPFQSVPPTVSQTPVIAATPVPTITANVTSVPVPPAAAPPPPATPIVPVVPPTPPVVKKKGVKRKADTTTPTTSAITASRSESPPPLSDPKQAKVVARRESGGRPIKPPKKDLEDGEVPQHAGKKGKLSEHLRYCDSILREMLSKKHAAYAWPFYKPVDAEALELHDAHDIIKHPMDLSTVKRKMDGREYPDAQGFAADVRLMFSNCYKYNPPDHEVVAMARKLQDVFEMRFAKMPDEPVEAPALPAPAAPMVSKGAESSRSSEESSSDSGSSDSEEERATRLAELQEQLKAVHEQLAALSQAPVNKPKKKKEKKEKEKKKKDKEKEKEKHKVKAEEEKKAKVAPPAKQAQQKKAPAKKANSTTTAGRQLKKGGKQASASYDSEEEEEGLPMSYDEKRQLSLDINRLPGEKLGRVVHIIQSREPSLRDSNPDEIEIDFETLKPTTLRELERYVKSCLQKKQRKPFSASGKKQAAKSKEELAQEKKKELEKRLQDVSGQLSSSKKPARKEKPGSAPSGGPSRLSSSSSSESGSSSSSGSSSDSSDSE

[8] = molecular target: Bromodomain-containing protein 3 (Homo sapiens, UniProt Q15059, Y73A); experiment: Displacement of Alexa Fluor 647 labelled ligand from 6His-Thr tagged BRD3 BD2/BD1 Y73A mutant (1 to 435 residues) (unknown origin) measured after 30 mins by TR-FRET assay
Sequence of Bromodomain-containing protein 3 (Homo sapiens, UniProt Q15059, Y73A) (Q15059 2-726 Y73A limits assumed): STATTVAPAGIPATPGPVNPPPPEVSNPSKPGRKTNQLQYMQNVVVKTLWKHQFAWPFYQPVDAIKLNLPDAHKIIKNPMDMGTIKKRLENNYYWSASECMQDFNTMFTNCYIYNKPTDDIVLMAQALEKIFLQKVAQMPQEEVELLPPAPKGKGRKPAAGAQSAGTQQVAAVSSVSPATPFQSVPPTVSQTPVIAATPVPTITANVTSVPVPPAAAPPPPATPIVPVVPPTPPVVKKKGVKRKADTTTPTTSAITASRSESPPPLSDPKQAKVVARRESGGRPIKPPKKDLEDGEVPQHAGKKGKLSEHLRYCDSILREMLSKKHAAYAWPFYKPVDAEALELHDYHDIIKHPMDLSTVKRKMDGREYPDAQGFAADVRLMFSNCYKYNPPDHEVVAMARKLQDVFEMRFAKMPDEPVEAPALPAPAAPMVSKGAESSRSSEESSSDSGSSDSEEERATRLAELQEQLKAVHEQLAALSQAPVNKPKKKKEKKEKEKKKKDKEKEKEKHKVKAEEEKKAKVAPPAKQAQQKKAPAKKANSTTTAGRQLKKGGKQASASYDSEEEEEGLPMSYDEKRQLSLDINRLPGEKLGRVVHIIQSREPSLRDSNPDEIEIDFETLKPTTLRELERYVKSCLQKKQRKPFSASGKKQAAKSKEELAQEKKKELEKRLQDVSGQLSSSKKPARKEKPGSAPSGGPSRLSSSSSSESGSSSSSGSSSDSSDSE

[9] = molecular target: Bromodomain-containing protein 2 (Homo sapiens, UniProt P25440, Y113A); experiment: Displacement of Alexa Fluor 647 labelled ligand from 6His-Thr tagged BRD2 BD2/BD1 Y113A mutant (1 to 473 residues) (unknown origin) measured after 30 mins by TR-FRET assay
Sequence of Bromodomain-containing protein 2 (Homo sapiens, UniProt P25440, Y113A) (P25440 whole entry Y113A, the tested form may be a part): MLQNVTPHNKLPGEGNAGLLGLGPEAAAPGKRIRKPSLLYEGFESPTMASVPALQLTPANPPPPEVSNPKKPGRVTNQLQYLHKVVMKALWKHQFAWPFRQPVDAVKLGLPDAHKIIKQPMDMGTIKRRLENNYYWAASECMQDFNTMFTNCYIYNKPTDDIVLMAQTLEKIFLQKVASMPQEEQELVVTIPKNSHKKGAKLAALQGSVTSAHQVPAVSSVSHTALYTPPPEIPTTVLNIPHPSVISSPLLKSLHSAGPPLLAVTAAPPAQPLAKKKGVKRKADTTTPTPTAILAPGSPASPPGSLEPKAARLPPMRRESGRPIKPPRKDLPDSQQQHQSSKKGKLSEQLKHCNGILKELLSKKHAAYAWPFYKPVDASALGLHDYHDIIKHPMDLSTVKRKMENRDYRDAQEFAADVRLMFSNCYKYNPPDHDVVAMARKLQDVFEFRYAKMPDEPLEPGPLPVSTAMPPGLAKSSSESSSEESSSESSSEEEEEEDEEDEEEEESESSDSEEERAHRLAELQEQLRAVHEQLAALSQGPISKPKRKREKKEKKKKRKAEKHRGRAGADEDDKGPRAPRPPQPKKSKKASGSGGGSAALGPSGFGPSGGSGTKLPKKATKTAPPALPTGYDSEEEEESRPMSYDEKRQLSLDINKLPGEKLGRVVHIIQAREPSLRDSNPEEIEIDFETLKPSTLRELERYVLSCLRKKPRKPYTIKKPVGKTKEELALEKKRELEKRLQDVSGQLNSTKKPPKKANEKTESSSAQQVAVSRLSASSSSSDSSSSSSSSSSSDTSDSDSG

[10] = molecular target: Albumin (Homo sapiens, UniProt P02768); experiment: Binding affinity to HSA relative to control; format: ADME; conditions: isolated protein
Sequence of Albumin (P02768 whole entry): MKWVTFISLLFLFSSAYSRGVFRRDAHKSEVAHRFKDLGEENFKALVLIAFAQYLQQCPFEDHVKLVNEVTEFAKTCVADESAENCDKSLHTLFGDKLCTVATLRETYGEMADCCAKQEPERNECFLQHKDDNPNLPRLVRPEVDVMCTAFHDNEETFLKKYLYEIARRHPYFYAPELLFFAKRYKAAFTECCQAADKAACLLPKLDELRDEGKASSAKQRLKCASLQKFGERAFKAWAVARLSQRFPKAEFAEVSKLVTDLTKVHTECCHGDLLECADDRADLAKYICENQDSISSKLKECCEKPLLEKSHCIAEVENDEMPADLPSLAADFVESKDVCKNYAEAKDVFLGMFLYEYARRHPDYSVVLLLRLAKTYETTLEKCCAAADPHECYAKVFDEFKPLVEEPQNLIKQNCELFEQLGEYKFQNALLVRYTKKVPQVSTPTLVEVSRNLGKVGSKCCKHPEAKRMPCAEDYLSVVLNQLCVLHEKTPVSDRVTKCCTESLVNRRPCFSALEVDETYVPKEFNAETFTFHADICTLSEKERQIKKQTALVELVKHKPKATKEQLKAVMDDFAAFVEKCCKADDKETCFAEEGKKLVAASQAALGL

[11] = Solubility of the compound in pH 6.5 FaSSIF at 125 ug/ml measured after 16 hrs by HPLC analysis; format: physicochemical; conditions: dose 125 µg/ml
[12] = Fraction unbound in human blood measured after 4 hrs by LC-MS/MS analysis; format: ADME, tissue-based
[13] = Fraction unbound in Beagle dog blood measured after 4 hrs by LC-MS/MS analysis; format: ADME, tissue-based, Canis lupus familiaris
[14] = Fraction unbound in Wistar Han rat blood measured after 4 hrs by LC-MS/MS analysis; format: ADME, tissue-based
[15] = Half life in Beagle dog at 0.5 mg/kg, iv administered as 1 hr infusion on day 1 and day 7 to achieve a target dose of 1 mg/kg by LC-MS/MS analysis; format: ADME, organism-based, Canis lupus familiaris; conditions: in vivo, dose 0.5-1 mg/kg, time 7 day
[16] = Oral bioavailability in Wistar Han rat at 3 mg/kg by LC-MS/MS analysis; format: ADME, organism-based; conditions: in vivo
[17] = Volume of distribution at steady state in Beagle dog at 0.5 mg/kg, iv administered as 1 hr infusion on day 1 and day 7 to achieve a target dose of 1 mg/kg by LC-MS/MS analysis; format: ADME, organism-based, Canis lupus familiaris; conditions: in vivo, dose 0.5-1 mg/kg, time 7 day, read-out: Vdss
[18] = Half life in Wistar Han rat at 1 mg/kg, iv administered as 1 hr infusion or 3 mg/kg, po administered via gavage by LC-MS/MS analysis; format: ADME, organism-based; conditions: in vivo
[19] = Volume of distribution at steady state in Wistar Han rat at 1 mg/kg, iv administered as 1 hr infusion or 3 mg/kg, po administered via gavage by LC-MS/MS analysis; format: ADME, organism-based; conditions: in vivo, read-out: Vdss
[20] = Clearance in Beagle dog at 0.5 mg/kg, iv administered as 1 hr infusion on day 1 and day 7 to achieve a target dose of 1 mg/kg by LC-MS/MS analysis; format: ADME, organism-based, Canis lupus familiaris; conditions: in vivo, dose 0.5-1 mg/kg, time 7 day
[21] = Clearance in Wistar Han rat at 1 mg/kg, iv administered as 1 hr infusion or 3 mg/kg, po administered via gavage by LC-MS/MS analysis; format: ADME, organism-based; conditions: in vivo
[22] = Intrinsic clearance in human hepatocytes assessed per g tissue at 0.5 uM measured up to 60 mins by LC-MS/MS analysis; format: ADME, cell-based, Hepatocyte; conditions: 1 h, time <=45 min
[23] = Intrinsic clearance in Beagle dog hepatocytes assessed per g tissue at 0.5 uM measured up to 120 mins by LC-MS/MS analysis; format: ADME, cell-based, Canis lupus familiaris, Hepatocyte; conditions: 2 h
[24] = Intrinsic clearance in Wistar Han rat hepatocytes assessed per g tissue at 0.5 uM measured up to 60 mins by LC-MS/MS analysis; format: ADME, cell-based, Hepatocyte; conditions: 1 h, time <=45 min
[25] = molecular target: Bromodomain-containing protein 2 (Homo sapiens, UniProt P25440, Y386A)
Sequence of Bromodomain-containing protein 2 (Homo sapiens, UniProt P25440, Y386A) (P25440 whole entry Y386A): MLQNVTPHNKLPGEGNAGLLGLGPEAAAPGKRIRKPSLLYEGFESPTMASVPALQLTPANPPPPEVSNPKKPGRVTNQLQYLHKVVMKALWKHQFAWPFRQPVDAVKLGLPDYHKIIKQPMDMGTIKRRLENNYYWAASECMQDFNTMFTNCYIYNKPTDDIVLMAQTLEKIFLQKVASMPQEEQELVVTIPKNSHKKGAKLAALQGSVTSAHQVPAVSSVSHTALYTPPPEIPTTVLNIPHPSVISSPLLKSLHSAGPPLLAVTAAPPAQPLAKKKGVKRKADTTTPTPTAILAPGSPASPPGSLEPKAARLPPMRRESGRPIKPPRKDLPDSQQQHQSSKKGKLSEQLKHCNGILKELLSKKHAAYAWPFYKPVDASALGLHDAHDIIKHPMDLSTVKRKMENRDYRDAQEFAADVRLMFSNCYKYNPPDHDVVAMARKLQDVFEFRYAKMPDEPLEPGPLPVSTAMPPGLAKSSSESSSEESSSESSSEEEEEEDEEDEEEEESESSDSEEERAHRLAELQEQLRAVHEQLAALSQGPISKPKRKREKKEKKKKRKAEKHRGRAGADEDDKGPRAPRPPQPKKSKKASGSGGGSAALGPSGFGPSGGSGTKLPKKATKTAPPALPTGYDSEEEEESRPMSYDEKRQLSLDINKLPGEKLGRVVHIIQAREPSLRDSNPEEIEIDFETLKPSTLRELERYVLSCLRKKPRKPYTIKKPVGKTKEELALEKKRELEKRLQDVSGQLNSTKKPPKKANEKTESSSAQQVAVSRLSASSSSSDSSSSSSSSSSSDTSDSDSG

[26] = buffer, pH 7.4
[27] = physchem; conditions: phosphate buffered saline, pH 7.4
[28] = in vitro; conditions: PAMPA, pH 7.4

Sequence of Cytochrome P450 3A4 (P08684 whole entry, the tested form may be a part): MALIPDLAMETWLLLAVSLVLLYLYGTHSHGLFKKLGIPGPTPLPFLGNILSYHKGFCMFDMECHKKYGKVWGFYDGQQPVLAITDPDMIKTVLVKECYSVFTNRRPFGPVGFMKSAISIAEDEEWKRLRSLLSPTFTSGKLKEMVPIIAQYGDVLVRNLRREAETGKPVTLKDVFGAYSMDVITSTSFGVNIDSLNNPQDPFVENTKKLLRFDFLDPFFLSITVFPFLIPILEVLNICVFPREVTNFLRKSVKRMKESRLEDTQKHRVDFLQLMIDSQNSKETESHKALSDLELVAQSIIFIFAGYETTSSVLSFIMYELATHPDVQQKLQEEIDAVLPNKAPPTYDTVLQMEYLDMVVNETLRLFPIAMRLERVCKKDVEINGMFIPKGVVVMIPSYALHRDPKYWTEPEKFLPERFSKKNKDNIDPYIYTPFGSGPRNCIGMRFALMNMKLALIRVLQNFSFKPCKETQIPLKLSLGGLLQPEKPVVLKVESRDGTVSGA

bioavailability [1]: 66% | IC50 [2]: > 39800 nM | CL [3]: 36% | CL [4]: 46% | IC50 [5]: 31.6 nM | IC50 [6]: 200 nM | IC50 [7]: 39800 nM | IC50 [8]: 100 nM | IC50 [9]: 251 nM | Activity [10]: 47% | solubility at 16 h [11]: 996 µg/mL (≈ 2400 µM) | fraction unbound at 4 h [12]: 0.32 | fraction unbound at 4 h [13]: 0.33 | fraction unbound at 4 h [14]: 0.44 | half-life [15]: 42 min | bioavailability [16]: 31% | Vd [17]: 0.91 L/kg | half-life [18]: 30 min | Vd [19]: 0.91 L/kg | clearance [20]: 20 mL/min/kg | clearance [21]: 36 mL/min/kg | CLH [22]: < 0.45 mL/min | CLH [23]: < 1.26 mL/min | CLH [24]: < 0.8 mL/min | IC50 [25]: 10000 nM | CHI [26]: 2.8 | solubility kinetic [27]: 91 µg/mL (≈ 220 µM) | Papp [28]: 1.6 ×10⁻⁶ cm/s
Structure (SMILES): CC(=O)Nc1c(F)cc(C(=O)N[C@H]2CC[C@H](O)CC2)cc1O[C@@H](C)c1ccccc1 [GSK046]
